The structures appear in SMILES notation. Entries after “also recorded” stand apart in the source; their conditions may differ.

One assay deals with gut microbiota. Put plainly: Fecal microbiome analysis by 16S rRNA gene sequencing. The format is in vivo, human. The protocol: Fecal microbiota profiles were measured for each sample as each operational taxonomic unit (OTU) species present and the relative abundance of that species, based on a region of 469 bp encompassing the V3 and V4 hypervariable regions of the 16S rRNA gene, following protocols developed at the Department of Microbiology and Immunology, University of Maryland School of Medicine Institute for Genome Sciences, Baltimore, MD ([40][–][42]).
(i) Sample collection and storage and DNA extraction. Fecal samples were collected at nine time points during the study for fecal microbiome analysis: twice before the first dose, on days 1, 4, 7, 9, and 12, and approximately 24 h prior to follow-up visits on day 18 and day 29. The subject was allowed to collect and bring the first fecal sample when admitted (collected within 24 h of admission and kept refrigerated until collected by staff). DNA was extracted from 150 mg of archived stool samples stored at –80°C for 16S rRNA gene amplification and sequencing. Cell lysis was initiated by adding 50 μl of lyzosyme (10 mg/ml), 6 μl of mutanolysin (25,000 U/ml; Sigma-Aldrich), and 3 μl of lysostaphin (4,000 U/ml in sodium acetate; Sigma-Aldrich) and 41 μl of TE50 buffer (10 mM Tris-HCl, 50 mM EDTA [pH 8.0]). Following a 1-h incubation at 37°C, 10 μl of proteinase K (20 mg/ml), 100 μl of 10% SDS, and 20 μl of RNase A (20 mg/ml) were added to the mixture and incubated for 1 h at 55°C. Microbial cells were lysed by mechanical disruption using a bead beater (FastPrep instrument; Qbiogene) set at 6.0 m/s for 30 s. DNA was purified from the lysate using the QIAsymphony robotics platform, consistently providing between 5 and 20 μg of high-quality and amplifiable whole genomic DNA. Following DNA quantitation via the Quant-iTTM PicoGreen double-stranded DNA (dsDNA) assay kit (Life Technologies), samples were diluted to a 5-ng/μl concentration.
PCRs with dually barcoded 16S rRNA universal primers (319F/806R) were set up using a semiautomated platform with a ViaFlo 96 high-performance 96-channel pipettor and performed on Bio-Rad Tetrad 2 instruments with up to 576 dual index barcoding ([40]). […] The cycling parameters were 30 s of denaturation at 98°C, followed by 30 cycles of 15 s at 98°C (denaturing), 15 s at 58°C (annealing), and 15 s at 72°C (elongation), with a final extension at 72°C for 60 s. Controls included a no-template control for each barcode combination, extraction controls, and a DNA sample of known composition (positive control). The presence of amplicons was confirmed by gel electrophoresis on a 2% E-gel 96. PCR products were normalized using the SequalPrep normalization kit (Life Technologies, Carlsbad, CA) and pooled in equimolar amounts (25 ng) in a single tube. Amplification primers and reaction buffer were removed from the pooled amplicon mixtures using an AMPure kit (Agencourt). The purified amplicon mixtures (up to 576 per pool) were sequenced on an Illumina MiSeq instrument using the 300-bp paired-end protocol (MiSeq 300PE) at the Genomics Resource Center (GRC) at the Institute for Genome Sciences, University of Maryland School of Medicine.
(iii) Bioinformatic analysis. For sequence quality control, assembly, and taxonomic assignments, a custom bioinformatics pipeline ([40]) was applied that relies on QIIME software ([43]), UCHIME ([44]), and the RDP Naïve Bayesian classifier ([45]). Baseline for fecal microbiome assessments was defined as the mean of the predose assessments on day 1. Presence was defined as positive abundance. The presence of each OTU species and the shift in presence/absence occurrence from baseline were tabulated by treatment. Shifts were categorized as no change, appearance, and disappearance.
Additional 16S rRNA data analysis was performed at the Division of Biomedical Informatics and Personalized Medicine, University of Colorado. Joined and quality-filtered sequences sharing >97% sequence similarity were binned as OTUs. […]

Another assay relates to C. difficile. Further details: method as in PMID 19258353, PMID 19251726. To be noted: cited from earlier work.

In the case of `O=c1cc(NCCCN[C@@H]2CCOc3c(Br)cc(Br)cc32)[nH]c2ccsc12` [CRS3123], the “median weighted UniFrac distance to placebo arm (community composition)” value in the assay on gut microbiota (200 mg, day 9, P = 0.006) turned out to be 0.361; with gut microbiota (400 mg, day 9, P = 0.027), 0.440; in the assay with gut microbiota (400 mg, day 29, P = 0.177) it was 0.4480; in the assay on gut microbiota (600 mg, day 9, P = 0.013) it was 0.663; in the assay on gut microbiota (600 mg, day 29, P = 0.077), 0.470. Besides, the “proteobacteria, maximum relative abundance” value in the assay with gut microbiota (200 mg, pretreatment value 0.8%) was determined as 1.6%. For the same compound, in the assay on gut microbiota (600 mg), the “proteobacteria, relative abundance” value was below 10%. Also, in the assay with gut microbiota (200-mg and 400-mg doses), the increase in proteobacteria result is “did not see an increase”. For the same compound, the “proportion of the major phyla in stool over time” value in the assay with gut microbiota (200-mg dosing group, not different from placebo) is reported as “minimal changes over time”. Further, the “relative abundance of Firmicutes” value with gut microbiota (400-mg- and 600-mg-BID dosing groups, Bacteroidetes and Actinobacteria increased) was “decreased”. Further, the “changes in highly abundant intestinal genera” value with gut microbiota (after 9 days of twice-daily dosing, exception target genus Clostridium) was “no significant changes”. For the same compound, in the assay with gut microbiota (any dose), the “loss of phyla during treatment” value is “no phyla were lost”. Moreover, the “time until composition was back to baseline levels after stopping the treatment” value in the assay with gut microbiota (any dose) was at most 7 days. Also, the “effect on commensal anaerobes (Bacteroides, bifidobacteria, Clostridium clusters XIVa and IV)” value in the assay with gut microbiota (stool microbiome of healthy subjects) was “inactive; also recorded: did not impact”. For the same compound, the “percentage of subjects with Clostridium species isolated at baseline but not at subsequent visits” value in the assay on gut microbiota (treatment phase, day 1 through day 10, versus placebo) is “greater in the CRS3123 treatment groups than in the placebo group”. Also, in the assay with gut microbiota (two lower doses (200, 400 mg), 10 days twice daily), the “disruption of normal gut microbiota” value was “minimal disruption”. For the same compound, in the assay with C. difficile, the “C. difficile toxin production and sporulation” value was “inhibits”.

Source of the values: paper PMC7187627 (Antimicrobial Agents and Chemotherapy, 2019).
